Assay [1] concerns 5-LOX. The conditions noted are these: cited from earlier work.
The test system of assay [2] is COX. The conditions noted are these: cited from earlier work.
In assay [3] the test system is tumor growth. The conditions noted are these: in vivo and in vitro; cited from earlier work.
Assay [4] is described as follows: DPPH free radical scavenging (antioxidant) assay. The conditions noted are these: for DPPH percent inhibition: mean ± SEM, n = 3. How it is done: The previously outlined methodology will be employed to evaluate the compounds’ antioxidant ability, as determined by the processes of the 1,1-diphenyl, 2-picrylhydrazyl (DPPH) free radical. The experimental specimens will be subjected to dilution using different quantities, spanning from 62.5 to 1000 μg/ml, and afterwards introduced into a methanolic solution of DPPH at a concentration of 0.004%. At 517 nm, the absorbance will be determined by a UV spectrophotometer following a 30-minute duration. The scavenging capability of ascorbic acid will be quantified by employing the equation: DPPH=[(A0−A1)/A0]100 Whereas: […]
Every test was carried out three times, and the median inhibitory dosages (IC50) were determined. The drawing of inhibition graphs was performed by GraphPad Prism software-GraphPAD, San Diego, California, USA.
The IC50 values were determined from dosage response curve using Microsoft Excel program.

Assay [5] addresses T1, 5-lipoxygenase (5-LOX) enzyme (Homo sapiens, UniProt P09917).
T1 sequence (P09917 1-674): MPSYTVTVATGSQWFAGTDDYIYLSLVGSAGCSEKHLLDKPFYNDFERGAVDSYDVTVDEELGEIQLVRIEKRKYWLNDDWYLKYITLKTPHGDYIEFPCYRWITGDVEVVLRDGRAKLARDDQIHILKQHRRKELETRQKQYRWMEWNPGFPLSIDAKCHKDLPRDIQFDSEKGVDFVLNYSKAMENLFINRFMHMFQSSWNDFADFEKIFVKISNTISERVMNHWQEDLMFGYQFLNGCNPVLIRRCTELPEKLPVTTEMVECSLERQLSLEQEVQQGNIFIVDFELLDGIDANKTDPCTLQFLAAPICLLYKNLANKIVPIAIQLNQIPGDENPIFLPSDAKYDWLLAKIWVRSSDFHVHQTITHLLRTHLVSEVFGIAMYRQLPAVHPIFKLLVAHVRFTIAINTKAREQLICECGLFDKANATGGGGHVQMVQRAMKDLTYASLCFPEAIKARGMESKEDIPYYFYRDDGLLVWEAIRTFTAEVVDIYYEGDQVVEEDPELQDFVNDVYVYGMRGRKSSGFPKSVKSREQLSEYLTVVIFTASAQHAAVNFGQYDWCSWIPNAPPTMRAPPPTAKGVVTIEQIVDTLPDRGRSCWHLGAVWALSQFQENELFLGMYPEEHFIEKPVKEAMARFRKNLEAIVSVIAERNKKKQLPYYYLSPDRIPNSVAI
Kind of assay: 5-LOX inhibitory assay. Type of assay: biochemical. The conditions noted are these: for inhibition at 62.5 µg/mL: 62.5 μg/ml; for inhibition at 62.5 µg/mL / inhibition at 125 µg/mL / inhibition at 250 µg/mL / inhibition at 500 µg/mL / inhibition at 1000 µg/mL: mean ± SEM, n = 3, read-out: 5-LOX percent inhibition; for inhibition at 125 µg/mL: 125 μg/ml; for inhibition at 250 µg/mL: 250 μg/ml; for inhibition at 500 µg/mL: 500 μg/ml; for inhibition at 1000 µg/mL: 1000 μg/ml. How it is done: The synthesized Isoxazole derivatives will be investigated for 5-LOX Inhibition studies as per established protocols of Wisastra and his co researchers. In this experiment, residual enzyme potential will be utilized to measure the degree of enzyme inhibition after 10 to 15 minutes of inhibitor’s incubation at 25°C. The reaction involving the conversion of linoleic acid, a substrate of lipoxygenase, into hydroperoxy-octadecadienoate (HPOD) will be employed as a means of quantifying the said reaction. The variation in the rate of absorption will be determined by employing a UV-visible spectrophotometer set at a wavelength of 234 nm. A 50 mM Tris buffer containing 2 mM EDTA and 2 mM CaCl2 was used as the assay buffer in this experiment. The buffer has a pH of 7.5. Following this, a buffer solution was employed to dilute the 5-lipoxygenase (5-LOX) enzyme at a concentration of 20,000 units per millilitre (U/mL) at a ratio of 1:4000. The 100 mM inhibitor was diluted using the test buffer following the administration of dimethyl sulfoxide (DMSO) for its dissolution. The content of linoleic acid was reduced to 20 mg/ml through dilution using ethyl alcohol. To accomplish this, 1 mL of the enzyme solution (1: 4000) will be combined with 100 μL of 2 mM adenosine triphosphate (ATP), 100 μL of the inhibitor (1 mM), and […] of Tris buffer while incubated for 10 min. Following approximately 10 seconds of the substrate and the enzyme mixing together, 10 μL of a 20 mM substrate solution will be added to the mixture. At that point, the changing rate of the substrate will be determined. The response rate will be utilized as a positive control without blockers. In this experiment, montelukast will be utilized as the reference medicine.

In assay [6] the test system is paw edema. The conditions noted are these: dose dependent manner; cited from earlier work.

For `COc1cc(-c2cc(-c3sccc3C)no2)cc(OC)c1OC` [Compound 65], the “activity of 5-LOX” value in assay [1] is “considerably reduce”. Further, the “activity of COX” value in assay [2] was “considerably reduce”. Besides, the “inhibition on tumor growth” value in assay [3] was “excellent inhibition”.
Compound `O=C1O[C@H]([C@@H](O)CO)C(O)=C1O` [Ascorbic acid, reference compound] displayed an IC50 in assay [4] of 17.9 µM. For the same compound, the DPPH percent inhibition was 77.72±0.59% in assay [4] (62.5 μg/mL); 79.37±0.71% in assay [4] (125 μg/mL); 82.25±0.72% in assay [4] (250 μg/mL); 87.65±0.42% in assay [4] (500 μg/mL); 92.51±0.69% in assay [4] (1000 μg/mL).
Consider `COc1ccc(C2NC(=O)NC(C(F)(F)F)=C2c2cc(-c3ccco3)on2)cc1` (stereo not shown) [Compound C6], for which, in assay [5], half-maximal inhibition (IC50) required 3.67 µM, the inhibition at 62.5 µg/mL turned out to be 81.9 ± 0.96%, the inhibition at 125 µg/mL was determined as 85.08 ± 0.47% and the inhibition at 250 µg/mL came to 88.8 ± 1.26%. In assay [5], the inhibition at 500 µg/mL came to 91.4 ± 0.2% and the inhibition at 1000 µg/mL amounted to 94.6 ± 1.12%. Moreover, the IC50 in assay [4] is 18.9 µM. For the same compound, the DPPH percent inhibition in assay [4] (62.5 μg/mL) was found to be 73.72±0.64%. This compound also gave a DPPH percent inhibition in assay [4] (125 μg/mL) of 78.42±0.66%. In assay [4] (250 μg/mL), this compound registered a DPPH percent inhibition of 83.53±0.45%. For the same compound, the DPPH percent inhibition in assay [4] (500 μg/mL) came out at 88.45±0.49%. In assay [4] (1000 μg/mL), this compound displayed a DPPH percent inhibition of 91.63±0.55%.
On to `CC(C)(O)c1ccccc1CC[C@@H](SCC1(CC(=O)O)CC1)c1cccc(/C=C/c2ccc3ccc(Cl)cc3n2)c1` [Montelukast, reference compound], for which, in assay [5], the IC50 came out at 21.8 µM, the inhibition at 62.5 µg/mL worked out at 71.8 ± 0.9%, the inhibition at 125 µg/mL turned out to be 76.4 ± 1.2% and the inhibition at 250 µg/mL was 81.6 ± 1.63%. In addition, in assay [5], the inhibition at 500 µg/mL came out at 87.5 ± 0.9% and the inhibition at 1000 µg/mL worked out at 94.1 ± 1.04%.
`CCO/C(C)=N/c1onc(C)c1C(=O)NCc1ccc(OC)cc1OC` [Compound 64]: the “inhibition of paw edema” value in assay [6] was “strongly inhibited”.

As usually defined, the IC50 is the concentration at which inhibition is half-maximal. One may read the inhibition as the drop in the measured response relative to a control, in per cent.

The record behind these values is publication PMC11452043, “In vitro 5-LOX inhibitory and antioxidant potential of isoxazole derivatives” (PLOS ONE, 2024).
